In ChEMBL document CHEMBL3507680, “University of Dundee, Gates Library screen for HepG2 cell viability” one finds cytotoxicity data, which are given here for 95 compounds.

The data set is described as follows: Human HepG2 cell viability assay in 384 well format. The format is toxicity, cell-based. Further details: dose 125 nL, time 70.5 hour; cytotoxicity at 70.5 h: concentration not given beside the values. The following applies: HepG2 cells, read-out: Inhibition.

Turning to `O=C(c1ccco1)N1CCC2(CC1)C(=O)Nc1ccccc12`, the cytotoxicity at 70.5 h is -9.22%.

As for `O=C1CC2(CCN(Cc3cccs3)C2)CN1c1cccc(F)c1` (stereo not given), the cytotoxicity at 70.5 h is -11%.

On to `CS(=O)(=O)N1CCCC12CCCN(C(=O)c1ccc3[nH]ccc3c1)C2` (stereo not given), for which the cytotoxicity at 70.5 h was -10.6%.

For the compound `CN(C)CC(=O)N1CCC2(CC1)COCCN(c1ncccn1)C2`, the cytotoxicity at 70.5 h amounted to 22.5%.

Regarding `Cc1ccc2c(n1)N(CCn1cccn1)CCN(C(=O)NC(C)C)C2`, the cytotoxicity at 70.5 h came to 21.7%.

Regarding `Cc1cnc(C(=O)N2CCc3ncnc(-c4cnn(C)c4)c3CC2)cn1`, the cytotoxicity at 70.5 h was determined as 0.39%.

Take `Cn1cc(-c2ncnc3c2CCN(C(=O)c2cnccn2)CC3)cn1`: the cytotoxicity at 70.5 h is 1.04%.

Take `Cc1noc(C2CCC3(CCN(C(=O)c4cc(C5CC5)on4)CC3)O2)n1` (stereo not given): the cytotoxicity at 70.5 h is -0.565%.

On to `O=C1CCCN1Cc1ncn2c1CN(C(=O)Cc1cccs1)CCC2`, for which the cytotoxicity at 70.5 h was -1.17%.

On to `CCn1ncc2c1C(COC)CN(Cc1nccs1)C2` (stereo not given), for which the cytotoxicity at 70.5 h amounted to 30.6%.

In the case of `CCOCC1CN(Cc2ccsc2)Cc2cnn(C)c21` (stereo not given), the cytotoxicity at 70.5 h was -0.486%.

On to `CCn1ncc2c1C(COC)CN(Cc1ccco1)C2` (stereo not given), for which the cytotoxicity at 70.5 h came out at 3.48%.

For the compound `CNC(=O)[C@@]12CCC3(CCN(C(=O)COC)CC3)[C@@H]1CN(S(C)(=O)=O)C2`, the cytotoxicity at 70.5 h stood at 4.47%.

As for `COCc1ncn2c1CN(C(=O)c1ccco1)CC2`, the cytotoxicity at 70.5 h stood at 1.28%.

Turning to `COCCO[C@H]1CCN(Cc2cnn(C)c2)[C@H]1Cc1cccnc1`, the cytotoxicity at 70.5 h is -3.42%.

For `COCCO[C@H]1CCN(Cc2ccoc2)[C@H]1Cc1cccnc1`, the cytotoxicity at 70.5 h is -0.128%.

As to `CCc1ccc(S(=O)(=O)N2CCCC3(CCCN3S(C)(=O)=O)C2)cc1` (stereo not given), the cytotoxicity at 70.5 h worked out at 22.3%.

In the case of `COCc1ncn2c1CN(C(=O)c1cnc3ccccc3c1)CC2`, the cytotoxicity at 70.5 h was 1.48%.

Turning to `Cn1ncc2c1C(COCC1CC1)CN(Cc1ccsc1)C2` (stereo not given), the cytotoxicity at 70.5 h was 2.88%.

In the case of `CS(=O)(=O)N1CCCC12CCCN(S(=O)(=O)c1ccc(F)c(F)c1)C2` (stereo not given), the cytotoxicity at 70.5 h stood at 2.95%.

Take `CC(C)c1ccc(S(=O)(=O)N2CCCC3(CCCN3S(C)(=O)=O)C2)cc1` (stereo not given): the cytotoxicity at 70.5 h was determined as 39.5%.

Regarding `O=C(C1CC1)N1CCC2(COCc3cnc(NCc4ccco4)nc32)C1` (stereo not given), the cytotoxicity at 70.5 h was -2.45%.

On to `O=C1CC2(CCN(c3nncs3)C2)CN1c1ccc2c(c1)OCCO2` (stereo not given), for which the cytotoxicity at 70.5 h was -1.06%.

For `Cc1cccc(N2CC3(CCN(c4nncs4)C3)CC2=O)c1` (stereo not given), the cytotoxicity at 70.5 h was -4.91%.

Regarding `CO[C@H]1CN(C(=O)c2ccc[nH]2)[C@@H]2COC[C@H]12`, the cytotoxicity at 70.5 h was -2.94%.

Take `O=C(NCC1CCN(C(=O)c2ccoc2)CC1)c1ccccc1Br`: the cytotoxicity at 70.5 h is -0.695%.

For the compound `O=S(=O)(c1ccccc1)N1CCN(CCn2ccnc2)CC1`, the cytotoxicity at 70.5 h is 1.34%.

With `O=S(=O)(c1cccnc1)N1CCN(CCn2ccnc2)CC1`, the cytotoxicity at 70.5 h was -0.387%.

Regarding `COc1ccccc1NC(=O)NCC(O)(c1ccccc1)C1CC1` (stereo not given), the cytotoxicity at 70.5 h came to 20.2%.

In the case of `Cc1ccc(NC(=O)Nc2cnc(N3CCN(C)CC3)nc2)c(Cl)c1`, the cytotoxicity at 70.5 h amounted to 3.18%.

Regarding `NC(=O)c1nnn(-c2ccc(Br)cc2)n1`, the cytotoxicity at 70.5 h came out at 33.2%.

With `Cn1c(C(F)(F)F)nn(CCNC(=O)CSCc2ccccc2)c1=O`, the cytotoxicity at 70.5 h was 0.995%.

In the case of `O=C1CCSCC(C(=O)N2CCOCC2)N1` (stereo not given), the cytotoxicity at 70.5 h stood at 0.753%.

For the compound `CCOC(=O)CCC(=O)N1CCC(Oc2ccc(C(F)(F)F)cn2)CC1`, the cytotoxicity at 70.5 h is -4.1%.

Consider `CC(=O)N1CCC(Oc2ccc(C#N)cn2)CC1`, for which the cytotoxicity at 70.5 h was -3.09%.

Take `CN(C)S(=O)(=O)N1CCC(Oc2ccc(C#N)cn2)CC1`: the cytotoxicity at 70.5 h was -1.45%.

Take `COC(=O)c1sccc1S(=O)(=O)N1CCC(Oc2cccnn2)CC1`: the cytotoxicity at 70.5 h is -3.46%.

Regarding `COc1ncc(NC(=O)Nc2cc(C)ccc2OC)cn1`, the cytotoxicity at 70.5 h was 39.1%.

With `CN(C)CC1CSCCCN1C(=O)Nc1ccc(C(C)(C)C)cc1` (stereo not given), the cytotoxicity at 70.5 h is 5.94%.

As to `Cc1cnc2n(c1=O)CC(C(=O)Nc1ccccc1Cl)CS2` (stereo not given), the cytotoxicity at 70.5 h was -5%.

For `CCc1c(C)nc2n(c1=O)CC(C(=O)Nc1nc3c(s1)CCCC3)CS2` (stereo not given), the cytotoxicity at 70.5 h amounted to 12.5%.

Consider `CCc1c(C)nc2n(c1=O)CC(C(=O)Nc1ccccc1F)CS2` (stereo not given), for which the cytotoxicity at 70.5 h was 20.5%.

For the compound `COCCN(Cc1ccoc1)C(=O)c1cccnc1SC`, the cytotoxicity at 70.5 h was -0.295%.

As for `Cn1cc(C(=O)Nc2ccc3c(c2)CN(C(=O)c2ccco2)CC3)nn1`, the cytotoxicity at 70.5 h was -4.02%.

As for `O=C(NCCn1ccc(-c2ccncc2)n1)c1ccncc1`, the cytotoxicity at 70.5 h was -2.74%.

As for `O=C(NCCn1ccc(-c2ccccn2)n1)C1CC1`, the cytotoxicity at 70.5 h is -4.52%.

For the compound `Cn1nc(CNC(=O)c2ccc(Cl)cc2)c2c1CCOC2`, the cytotoxicity at 70.5 h is 3.98%.

On to `Cn1nc(CNC(=O)NCc2ccc(Cl)cc2)c2c1CCOC2`, for which the cytotoxicity at 70.5 h is -0.247%.

On to `Cn1nc(CNC(=O)C2COc3ccccc3O2)cc1C1CC1` (stereo not given), for which the cytotoxicity at 70.5 h is 6.17%.

With `Cn1cnnc1S(=O)(=O)C1CCN(S(=O)(=O)c2ccc(F)c(Cl)c2)CC1`, the cytotoxicity at 70.5 h is -5.73%.

Take `CNC(=O)CS(=O)(=O)C1CCN(S(=O)(=O)c2c(F)cccc2F)CC1`: the cytotoxicity at 70.5 h was -7.9%.

Consider `O=C1CC(c2cccc(O)c2)c2sc(C(=O)O)c(-c3ccccc3)c2N1` (stereo not given), for which the cytotoxicity at 70.5 h turned out to be 26.4%.

Consider `CC(C)n1[nH]c(=O)c2c1NC(=O)CC2c1ccc2ncccc2c1` (stereo not given), for which the cytotoxicity at 70.5 h stood at 5.19%.

In the case of `O=C(NCCC1=CCCCC1)C1CCN(c2ccc3nncn3n2)CC1`, the cytotoxicity at 70.5 h is 3.11%.

In the case of `CC(C)n1[nH]c(=O)c2c1NC(=O)CC2c1cccc(OC(F)F)c1` (stereo not given), the cytotoxicity at 70.5 h stood at 6.29%.

As for `CC(C)(C)n1ncc2c1NC(=O)CC2c1ccsc1` (stereo not given), the cytotoxicity at 70.5 h was -5.9%.

With `CS(=O)(=O)N1CCN(C(=O)Cn2ccc3c(Cl)cccc32)CC1`, the cytotoxicity at 70.5 h is 8.68%.

`COC(=O)Cn1c(=O)nc2n1C(=O)N(c1ccc(Cl)cc1)C2`: the cytotoxicity at 70.5 h was 8.74%.

Consider `COC(=O)Cn1c(=O)nc2n1C(=O)N(c1ccccc1)C2`, for which the cytotoxicity at 70.5 h was -8.59%.

As for `CC(C)(C)n1ncc2c1NC(=O)CC2c1ccc(OCC(N)=O)cc1` (stereo not given), the cytotoxicity at 70.5 h is -10.7%.

Take `CC(C)(C)n1ncc2c1NC(=O)CC2c1ccccc1` (stereo not given): the cytotoxicity at 70.5 h was -7.73%.

For `O=C1CC(c2ccco2)c2sc(C(=O)O)c(-c3ccccc3)c2N1` (stereo not given), the cytotoxicity at 70.5 h was -13.5%.

On to `CCOc1ccc(CNCCCn2ccnc2)cc1Br`, for which the cytotoxicity at 70.5 h came out at 6.06%.

For `O=C(O)c1nnn(Cc2cccc(C(F)(F)F)c2)c1-c1cccnc1`, the cytotoxicity at 70.5 h was -30.6%.

Consider `CC(CNCc1ccc(Cl)c(Cl)c1)Oc1ccccn1` (stereo not given), for which the cytotoxicity at 70.5 h was -1.69%.

Regarding `O=C(c1ccccn1)N1CCC2(CC1)C(=O)Nc1ccccc12`, the cytotoxicity at 70.5 h was -9.49%.

Consider `O=C(CC1CC1)N1CC[C@H]2OCC[C@@]2(COc2ncccc2F)C1`, for which the cytotoxicity at 70.5 h is -21.5%.

With `O=C1CCCN1Cc1ncn2c1CN(C(=O)N1CCCC1)CCC2`, the cytotoxicity at 70.5 h turned out to be 0.134%.

With `CCS(=O)(=O)N1Cc2ncn(CC3CC3)c2C(COCC2CC2)C1` (stereo not given), the cytotoxicity at 70.5 h is 1.64%.

Regarding `CCS(=O)(=O)N1CCN(CCn2cccn2)c2nc(C)ccc2C1`, the cytotoxicity at 70.5 h is -2.39%.

With `CN(C)C(=O)N1CCC2(CCCN(c3ncccn3)C2)C1` (stereo not given), the cytotoxicity at 70.5 h came out at 5.18%.

Take `CC(C)N1CCC2(CC1)CC(NS(C)(=O)=O)c1ccccc1O2` (stereo not given): the cytotoxicity at 70.5 h is 4.16%.

With `Cc1ccsc1CN1C[C@@H]2COC[C@]2(COCC(=O)N(C)C)C1`, the cytotoxicity at 70.5 h was -0.655%.

As to `CN(C)C(=O)COC[C@]12COC[C@H]1CN(CCc1ccccc1)C2`, the cytotoxicity at 70.5 h was -1.91%.

Turning to `COCc1ncn2c1CN(C(=O)c1cccc3cccnc13)CC2`, the cytotoxicity at 70.5 h is 19.6%.

On to `CC(C)NC(=O)c1ccc2c(c1)C1(CCN(C(C)C)CC1)C(=O)N2`, for which the cytotoxicity at 70.5 h was found to be 0.266%.

For `CC(C)COC[C@@H]1CC[C@H]2[C@H](CCN2C(=O)c2ccncc2F)O1`, the cytotoxicity at 70.5 h amounted to 1.98%.

Turning to `CCN1CCC2(CC1)C(=O)Nc1ccc(C(=O)NC)cc12`, the cytotoxicity at 70.5 h worked out at 4.51%.

`CS(=O)(=O)NC1CC2(CCN(CC3CC3)CC2)Oc2ccccc21` (stereo not given): the cytotoxicity at 70.5 h is 1.75%.

Regarding `CNC(=O)c1ccc2c(c1)C1(CCN(CCOC)CC1)C(=O)N2`, the cytotoxicity at 70.5 h stood at 0.0675%.

On to `O=c1ccc2c([nH]1)CCC(NCc1ccc3c(c1)OCO3)C2` (stereo not given), for which the cytotoxicity at 70.5 h is -1.6%.

Turning to `Cc1ccc(CN2C[C@@H]3[C@@H](C(=O)NCC(C)C)CCS(=O)(=O)[C@@H]3C2)cc1`, the cytotoxicity at 70.5 h was -1.42%.

As for `CN(C)CCn1c2c(ccc1=O)CCN(C(=O)c1cccs1)CC2`, the cytotoxicity at 70.5 h is -5.63%.

For the compound `Cc1ccc(C(=O)N2CCc3ccc(=O)n(CCN(C)C)c3CC2)o1`, the cytotoxicity at 70.5 h was -4.04%.

For the compound `CNC(=O)CN1CC[C@H]2CN(C(=O)c3ccc(C)cc3)C[C@H]2C1`, the cytotoxicity at 70.5 h is -4.71%.

`Cc1ccc(CN2C[C@@H]3[C@@H](C(=O)NCC4CC4)CCS(=O)(=O)[C@@H]3C2)cc1`: the cytotoxicity at 70.5 h is -1.55%.

Turning to `Cc1cccc(CN2C[C@@H]3[C@@H](C(=O)NCC(C)C)CCS(=O)(=O)[C@@H]3C2)c1`, the cytotoxicity at 70.5 h was -6.13%.

For the compound `O=C(NCC1CCOCC1)[C@@H]1CC[C@@H]2[C@@H](CCN2Cc2ccncc2)O1`, the cytotoxicity at 70.5 h is -0.695%.

Regarding `Cn1ccnc1C(=O)NCc1cnc2n1CCN(CC1CC1)CC2`, the cytotoxicity at 70.5 h was -0.996%.

Take `CN1CCc2cc(C(=O)N(C)C)c(NCC3CC3)nc2CC1`: the cytotoxicity at 70.5 h was -1.63%.

For `Cc1nc(CN2CC[C@@H](OCC3CC3)[C@@H]2Cc2cccnc2)cs1`, the cytotoxicity at 70.5 h was -0.893%.

`Cc1ccc(N[C@@H]2CN(Cc3cc(C)on3)C[C@@H]3CCCO[C@@H]32)nn1`: the cytotoxicity at 70.5 h amounted to 2.24%.

Regarding `O=C(C1CC1)N1CC[C@@H]2[C@H](CC1)N(Cc1cccnc1)CCS2(=O)=O`, the cytotoxicity at 70.5 h was -2.85%.

As to `CN(C)CCOCC1CN(Cc2ccncc2)Cc2nnn(C)c21` (stereo not given), the cytotoxicity at 70.5 h stood at 1.9%.

For the compound `CN(C)CCN1CCN(Cc2cccc(C#N)c2)Cc2cccnc21`, the cytotoxicity at 70.5 h is -2.4%.
